Results from ChEMBL document CHEMBL5653631, “A Potent and Selective ULK1 Inhibitor Suppresses Autophagy and Sensitizes Cancer Cells to Nutrient Stress” (iScience, 2018).

Tests used:
[1] = target: Serine/threonine-protein kinase mTOR (Homo sapiens) (UniProt P42345); experiment: Inhibition of human recombinant FRAP at 40 nM in presence of ATP by radiometric assay relative to control
[2] = target: STE20-like serine/threonine-protein kinase (Homo sapiens) (UniProt Q9H2G2); experiment: Inhibition of human recombinant SLK at 40 nM in presence of ATP by radiometric assay relative to control
[3] = target: T1, Homeodomain-interacting protein kinase 4 (Homo sapiens) (UniProt Q8NE63); experiment: Inhibition of human recombinant HIPK4 at 40 nM related to control ULK1
T1 sequence (whole entry): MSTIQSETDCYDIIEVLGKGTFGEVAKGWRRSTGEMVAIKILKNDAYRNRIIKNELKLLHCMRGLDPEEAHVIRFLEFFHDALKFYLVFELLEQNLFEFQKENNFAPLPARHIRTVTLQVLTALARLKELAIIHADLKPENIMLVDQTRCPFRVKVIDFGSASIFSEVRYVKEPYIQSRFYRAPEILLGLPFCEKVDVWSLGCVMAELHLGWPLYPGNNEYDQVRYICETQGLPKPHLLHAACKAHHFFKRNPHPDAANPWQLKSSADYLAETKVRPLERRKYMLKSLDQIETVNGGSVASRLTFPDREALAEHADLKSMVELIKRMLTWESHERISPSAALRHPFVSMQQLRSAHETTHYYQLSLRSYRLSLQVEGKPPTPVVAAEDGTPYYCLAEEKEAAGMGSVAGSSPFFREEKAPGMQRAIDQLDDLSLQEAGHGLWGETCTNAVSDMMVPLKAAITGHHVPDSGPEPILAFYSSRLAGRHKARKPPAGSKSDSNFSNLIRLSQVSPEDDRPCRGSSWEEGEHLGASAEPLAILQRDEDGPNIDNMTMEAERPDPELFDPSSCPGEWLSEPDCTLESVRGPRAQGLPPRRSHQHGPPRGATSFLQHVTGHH

[4] = target: Tyrosine-protein kinase Lyn (Homo sapiens) (UniProt P07948); experiment: Inhibition of human recombinant LYN at 40 nM related to control ULK1
[5] = target: Misshapen-like kinase 1 (Homo sapiens) (UniProt Q8N4C8); experiment: Inhibition of human recombinant MINK at 40 nM related to control ULK1
[6] = target: Calcium/calmodulin-dependent protein kinase kinase 2 (Homo sapiens) (UniProt Q96RR4); experiment: Inhibition of human recombinant CaMKK2 at 500 nM in presence of ATP by radiometric assay relative to control
[7] = target: Transcription initiation factor TFIID subunit 1-like (Homo sapiens) (UniProt Q8IZX4); experiment: Inhibition of human recombinant TAF1L at 500 nM in presence of ATP by radiometric assay relative to control
[8] = target: T2, Testis-specific serine/threonine-protein kinase 1 (Homo sapiens) (UniProt Q9BXA7); experiment: Inhibition of human recombinant TSSK1 at 500 nM in presence of ATP by radiometric assay relative to control
T2 sequence (whole entry): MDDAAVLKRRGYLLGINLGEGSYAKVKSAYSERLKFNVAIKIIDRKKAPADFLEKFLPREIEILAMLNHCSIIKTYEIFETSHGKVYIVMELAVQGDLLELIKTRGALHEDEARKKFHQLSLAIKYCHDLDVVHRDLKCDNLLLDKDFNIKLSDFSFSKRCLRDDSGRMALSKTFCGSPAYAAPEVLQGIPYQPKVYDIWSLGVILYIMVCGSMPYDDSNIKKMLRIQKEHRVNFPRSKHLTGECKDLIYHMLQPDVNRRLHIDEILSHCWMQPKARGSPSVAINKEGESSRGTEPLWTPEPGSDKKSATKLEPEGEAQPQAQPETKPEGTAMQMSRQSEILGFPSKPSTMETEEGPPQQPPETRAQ

[9] = target: Serine/threonine-protein kinase WNK2 (Homo sapiens) (UniProt Q9Y3S1); experiment: Inhibition of human recombinant Wnk2 at 500 nM in presence of ATP by radiometric assay relative to control
[10] = target: Tyrosine-protein kinase Fyn (Homo sapiens) (UniProt P06241); experiment: Inhibition of human recombinant FYN at 500 nM related to control ULK1
[11] = target: Serine/threonine-protein kinase N2 (Homo sapiens) (UniProt Q16513); experiment: Inhibition of human recombinant PKN2 at 500 nM related to control ULK1
[12] = target: Serine/threonine-protein kinase SIK2 (Homo sapiens) (UniProt Q9H0K1); experiment: Inhibition of human recombinant QIK at 500 nM related to control ULK1
[13] = target: Serine/threonine-protein kinase pim-3 (Homo sapiens) (UniProt Q86V86); experiment: Inhibition of human recombinant PIM3 at 15 nM in presence of ATP by radiometric assay relative to control
[14] = target: T3, Protein kinase C zeta type (Homo sapiens) (UniProt Q05513); experiment: Inhibition of human recombinant PKCz at 15 nM in presence of ATP by radiometric assay relative to control
T3 sequence (whole entry): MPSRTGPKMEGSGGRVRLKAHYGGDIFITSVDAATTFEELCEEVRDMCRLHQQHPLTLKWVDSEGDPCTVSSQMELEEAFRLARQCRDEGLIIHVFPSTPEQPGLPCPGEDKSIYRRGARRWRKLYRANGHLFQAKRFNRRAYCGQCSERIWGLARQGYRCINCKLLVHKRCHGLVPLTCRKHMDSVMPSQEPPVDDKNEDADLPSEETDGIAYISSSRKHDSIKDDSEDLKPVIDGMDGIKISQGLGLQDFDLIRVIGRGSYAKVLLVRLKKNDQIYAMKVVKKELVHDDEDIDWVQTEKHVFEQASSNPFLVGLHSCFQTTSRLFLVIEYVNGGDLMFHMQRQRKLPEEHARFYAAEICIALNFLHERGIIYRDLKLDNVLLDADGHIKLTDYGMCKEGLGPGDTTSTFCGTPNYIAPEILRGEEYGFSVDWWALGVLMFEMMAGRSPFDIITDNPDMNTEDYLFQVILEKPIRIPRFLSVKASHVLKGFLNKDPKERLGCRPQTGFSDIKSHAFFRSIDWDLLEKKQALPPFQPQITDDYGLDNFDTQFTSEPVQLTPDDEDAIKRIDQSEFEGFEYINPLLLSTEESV

[15] = target: Serine/threonine-protein kinase PRP4 homolog (Homo sapiens) (UniProt Q13523); experiment: Inhibition of human recombinant PRP4 at 15 nM in presence of ATP by radiometric assay relative to control
[16] = target: Serine/threonine-protein kinase 24 (Homo sapiens) (UniProt Q9Y6E0); experiment: Inhibition of human recombinant MST3 at 15 nM related to control ULK1

Serine/threonine-protein kinase WNK2 (Homo sapiens), sequence (Q9Y3S1 whole entry): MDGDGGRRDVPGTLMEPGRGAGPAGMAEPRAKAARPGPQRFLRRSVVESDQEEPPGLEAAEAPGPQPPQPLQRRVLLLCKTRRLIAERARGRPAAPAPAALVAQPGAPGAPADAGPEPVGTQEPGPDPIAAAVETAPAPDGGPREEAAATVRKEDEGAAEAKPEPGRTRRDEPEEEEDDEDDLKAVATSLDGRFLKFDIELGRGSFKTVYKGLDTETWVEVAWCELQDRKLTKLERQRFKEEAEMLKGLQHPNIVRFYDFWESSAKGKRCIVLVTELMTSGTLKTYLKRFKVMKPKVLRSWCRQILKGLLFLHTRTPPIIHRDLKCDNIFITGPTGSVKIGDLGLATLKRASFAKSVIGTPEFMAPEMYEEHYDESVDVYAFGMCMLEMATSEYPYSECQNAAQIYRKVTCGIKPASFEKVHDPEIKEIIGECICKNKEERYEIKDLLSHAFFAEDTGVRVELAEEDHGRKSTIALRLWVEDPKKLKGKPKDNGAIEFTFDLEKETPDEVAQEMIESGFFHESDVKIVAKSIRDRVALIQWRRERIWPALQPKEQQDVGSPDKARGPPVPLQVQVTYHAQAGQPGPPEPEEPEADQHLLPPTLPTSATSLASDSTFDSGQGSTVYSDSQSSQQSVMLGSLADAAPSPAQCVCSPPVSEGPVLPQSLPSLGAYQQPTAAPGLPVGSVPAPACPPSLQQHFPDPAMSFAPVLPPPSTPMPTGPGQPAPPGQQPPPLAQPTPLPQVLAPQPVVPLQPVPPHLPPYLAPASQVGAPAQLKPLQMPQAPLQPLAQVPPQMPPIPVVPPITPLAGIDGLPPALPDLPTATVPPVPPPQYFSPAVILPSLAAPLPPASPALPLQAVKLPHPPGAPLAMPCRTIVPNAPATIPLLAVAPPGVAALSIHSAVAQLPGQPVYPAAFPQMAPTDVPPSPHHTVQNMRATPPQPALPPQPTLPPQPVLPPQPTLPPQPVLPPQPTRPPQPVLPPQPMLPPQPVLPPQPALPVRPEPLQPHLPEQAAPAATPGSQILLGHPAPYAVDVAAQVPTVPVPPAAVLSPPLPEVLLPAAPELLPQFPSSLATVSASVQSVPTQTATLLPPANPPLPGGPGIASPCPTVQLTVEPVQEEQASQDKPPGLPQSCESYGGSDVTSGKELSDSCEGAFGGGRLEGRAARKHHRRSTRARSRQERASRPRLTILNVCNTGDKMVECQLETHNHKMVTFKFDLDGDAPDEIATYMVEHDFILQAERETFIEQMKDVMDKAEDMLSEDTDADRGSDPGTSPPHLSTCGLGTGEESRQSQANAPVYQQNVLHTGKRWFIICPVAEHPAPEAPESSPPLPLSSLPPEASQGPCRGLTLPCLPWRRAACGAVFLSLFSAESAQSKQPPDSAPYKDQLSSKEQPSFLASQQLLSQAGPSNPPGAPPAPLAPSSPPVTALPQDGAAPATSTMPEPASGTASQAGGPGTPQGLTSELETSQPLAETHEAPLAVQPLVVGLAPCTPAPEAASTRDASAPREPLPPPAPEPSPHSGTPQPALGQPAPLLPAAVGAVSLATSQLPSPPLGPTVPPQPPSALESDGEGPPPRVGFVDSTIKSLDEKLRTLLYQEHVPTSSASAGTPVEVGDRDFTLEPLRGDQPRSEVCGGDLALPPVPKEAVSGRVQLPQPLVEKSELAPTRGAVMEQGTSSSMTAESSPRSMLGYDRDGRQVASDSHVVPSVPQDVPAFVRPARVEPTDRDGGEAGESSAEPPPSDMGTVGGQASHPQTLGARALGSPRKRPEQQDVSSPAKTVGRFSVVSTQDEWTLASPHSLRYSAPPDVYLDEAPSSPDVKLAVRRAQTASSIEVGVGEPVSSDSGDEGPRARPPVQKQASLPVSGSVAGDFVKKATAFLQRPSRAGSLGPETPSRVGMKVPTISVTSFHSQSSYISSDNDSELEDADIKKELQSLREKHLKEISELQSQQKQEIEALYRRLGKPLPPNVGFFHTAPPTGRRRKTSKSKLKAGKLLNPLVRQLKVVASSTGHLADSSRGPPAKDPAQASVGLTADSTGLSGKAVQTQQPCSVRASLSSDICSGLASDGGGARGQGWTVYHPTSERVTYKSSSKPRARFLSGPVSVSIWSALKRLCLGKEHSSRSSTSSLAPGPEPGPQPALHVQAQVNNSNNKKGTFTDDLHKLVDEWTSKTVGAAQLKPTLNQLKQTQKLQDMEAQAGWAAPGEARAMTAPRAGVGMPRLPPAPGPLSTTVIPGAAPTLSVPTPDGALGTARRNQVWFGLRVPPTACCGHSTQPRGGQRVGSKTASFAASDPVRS
Calcium/calmodulin-dependent protein kinase kinase 2 (Homo sapiens), sequence (Q96RR4 2-588 limits assumed): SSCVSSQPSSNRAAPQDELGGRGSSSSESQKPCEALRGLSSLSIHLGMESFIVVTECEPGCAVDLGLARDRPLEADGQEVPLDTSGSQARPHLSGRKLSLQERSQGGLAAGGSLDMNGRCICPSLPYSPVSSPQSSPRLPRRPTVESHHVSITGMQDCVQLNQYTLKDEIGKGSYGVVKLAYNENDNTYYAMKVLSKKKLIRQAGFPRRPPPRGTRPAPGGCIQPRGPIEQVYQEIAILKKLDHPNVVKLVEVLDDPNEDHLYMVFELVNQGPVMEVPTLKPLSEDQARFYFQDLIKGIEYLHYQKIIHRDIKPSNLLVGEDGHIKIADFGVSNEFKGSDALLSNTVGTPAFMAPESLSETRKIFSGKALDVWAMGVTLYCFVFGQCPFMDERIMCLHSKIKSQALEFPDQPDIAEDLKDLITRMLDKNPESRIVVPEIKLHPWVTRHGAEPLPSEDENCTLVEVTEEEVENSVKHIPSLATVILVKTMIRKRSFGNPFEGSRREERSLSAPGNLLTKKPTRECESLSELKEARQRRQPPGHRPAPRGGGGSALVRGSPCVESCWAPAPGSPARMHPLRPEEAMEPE
Serine/threonine-protein kinase SIK2 (Homo sapiens), sequence (Q9H0K1 whole entry, looked up): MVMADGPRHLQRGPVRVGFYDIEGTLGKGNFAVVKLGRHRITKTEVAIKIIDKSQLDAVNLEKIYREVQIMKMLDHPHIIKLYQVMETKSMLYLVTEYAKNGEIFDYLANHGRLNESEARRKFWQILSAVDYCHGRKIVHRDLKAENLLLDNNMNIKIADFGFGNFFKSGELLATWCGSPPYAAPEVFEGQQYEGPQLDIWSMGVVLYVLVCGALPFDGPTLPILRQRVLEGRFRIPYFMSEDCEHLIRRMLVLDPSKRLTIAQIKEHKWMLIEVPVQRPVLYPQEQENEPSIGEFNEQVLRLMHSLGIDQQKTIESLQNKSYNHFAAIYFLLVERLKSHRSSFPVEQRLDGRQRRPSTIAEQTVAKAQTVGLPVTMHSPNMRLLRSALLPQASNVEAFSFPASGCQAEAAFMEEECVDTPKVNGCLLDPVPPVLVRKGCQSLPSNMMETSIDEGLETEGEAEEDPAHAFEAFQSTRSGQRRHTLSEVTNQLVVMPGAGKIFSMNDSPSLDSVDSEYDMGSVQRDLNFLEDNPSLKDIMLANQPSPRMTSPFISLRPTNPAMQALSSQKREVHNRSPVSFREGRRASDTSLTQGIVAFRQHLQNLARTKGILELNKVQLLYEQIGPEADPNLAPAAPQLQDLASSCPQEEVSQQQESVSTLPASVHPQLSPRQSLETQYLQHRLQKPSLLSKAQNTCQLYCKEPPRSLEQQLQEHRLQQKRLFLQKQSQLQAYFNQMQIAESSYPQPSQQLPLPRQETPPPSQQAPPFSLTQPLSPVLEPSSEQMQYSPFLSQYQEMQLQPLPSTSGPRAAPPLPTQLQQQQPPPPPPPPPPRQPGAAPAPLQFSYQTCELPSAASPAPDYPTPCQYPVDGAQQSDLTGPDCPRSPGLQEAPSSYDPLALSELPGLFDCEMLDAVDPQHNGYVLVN
Misshapen-like kinase 1 (Homo sapiens), sequence (Q8N4C8 whole entry, looked up): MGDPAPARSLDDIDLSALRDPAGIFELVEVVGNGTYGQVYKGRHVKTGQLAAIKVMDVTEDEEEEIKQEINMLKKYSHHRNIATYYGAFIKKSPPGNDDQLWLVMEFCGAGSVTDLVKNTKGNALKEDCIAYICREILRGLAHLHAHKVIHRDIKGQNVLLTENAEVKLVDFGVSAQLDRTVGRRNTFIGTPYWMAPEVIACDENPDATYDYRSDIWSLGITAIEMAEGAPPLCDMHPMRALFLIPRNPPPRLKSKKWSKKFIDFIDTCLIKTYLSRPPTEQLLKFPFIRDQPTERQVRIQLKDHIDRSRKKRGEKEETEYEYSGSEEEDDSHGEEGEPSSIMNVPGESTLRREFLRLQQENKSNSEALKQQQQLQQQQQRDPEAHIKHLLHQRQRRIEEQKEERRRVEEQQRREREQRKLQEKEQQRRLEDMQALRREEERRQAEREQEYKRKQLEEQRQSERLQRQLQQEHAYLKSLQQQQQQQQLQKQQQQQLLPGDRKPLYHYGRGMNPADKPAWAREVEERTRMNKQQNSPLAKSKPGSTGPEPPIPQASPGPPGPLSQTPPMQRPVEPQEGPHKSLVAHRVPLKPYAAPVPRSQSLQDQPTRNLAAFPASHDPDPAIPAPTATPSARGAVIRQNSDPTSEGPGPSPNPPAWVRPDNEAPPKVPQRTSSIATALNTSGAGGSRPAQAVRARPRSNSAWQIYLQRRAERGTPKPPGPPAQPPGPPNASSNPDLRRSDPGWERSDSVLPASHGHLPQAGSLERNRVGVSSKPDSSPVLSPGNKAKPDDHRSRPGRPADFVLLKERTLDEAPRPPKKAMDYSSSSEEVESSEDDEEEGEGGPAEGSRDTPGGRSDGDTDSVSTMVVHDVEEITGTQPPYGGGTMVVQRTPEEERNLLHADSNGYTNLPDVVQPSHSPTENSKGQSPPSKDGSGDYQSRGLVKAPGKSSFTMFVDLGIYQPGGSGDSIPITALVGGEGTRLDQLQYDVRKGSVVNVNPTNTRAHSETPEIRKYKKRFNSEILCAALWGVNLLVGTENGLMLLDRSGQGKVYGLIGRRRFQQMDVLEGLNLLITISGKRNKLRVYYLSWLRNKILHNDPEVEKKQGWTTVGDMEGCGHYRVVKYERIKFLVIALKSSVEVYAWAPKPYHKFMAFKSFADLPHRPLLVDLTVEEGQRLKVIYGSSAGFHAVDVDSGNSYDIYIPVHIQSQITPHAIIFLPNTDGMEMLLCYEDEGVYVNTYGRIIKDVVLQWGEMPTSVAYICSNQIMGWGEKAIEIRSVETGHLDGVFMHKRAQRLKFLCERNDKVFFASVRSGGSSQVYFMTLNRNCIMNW

What does the source list for O=C(N[C@@H](C1CC1)C(F)(F)F)c1cc(-c2cnn3cc(-c4ccc(F)cc4)cnc23)cs1?
inhibition [1]: 0%; inhibition [2]: 0%; fold change (FC) [3]: 0; fold change (FC) [4]: 0.25; fold change (FC) [5]: 0.1

Which inhibition [6] does the source give for CNC(=O)c1ccccc1Oc1nc(Nc2cc(OC)c(OC)c(OC)c2)ncc1Br here?
The inhibition was 4%.

What about the inhibition [7] of the same compound?
The inhibition was 0%.

What about the inhibition [8] of the same compound?
The inhibition was 0%.

And the inhibition [9]?
Its inhibition is 1%.

And the fold change (FC) [10]?
The fold change (FC) was 0.26.

And the fold change (FC) [11]?
The fold change (FC) was 0.

What about the fold change (FC) [12] of the same compound?
Its fold change (FC) is 0.

Which inhibition [13] does the source give for CC(C)[C@H](NC(=O)c1cc(-c2cnn3cc(-c4ccc(OCCN5CCCCC5)cc4)cnc23)cs1)C(F)(F)F here?
The inhibition was 2%.

And the inhibition [14]?
The inhibition was 0%.

And the inhibition [15]?
The inhibition was 6%.

And the fold change (FC) [16]?
Its fold change (FC) is 0.
